{"source": "patent US11160887B2", "about": "“Compositions for use in diagnosing and treating melanoma, including metastatic melanoma and methods related to same” (UNM RAINFOREST INNOVATIONS, priority 2008, dated 2021)", "system": "B16/F10 pulmonary melanoma metastases", "format": "in vivo, mouse", "settings": "mouse, in vivo", "method": "Metastatic Melanoma Imaging: A pulmonary metastatic melanoma-bearing mouse was used for [^18F]FDG PET imaging 16 days after the cell injection and used for ^111In-DOTA-GlyGlu-CycMSH SPECT/CT imaging on next day (a time interval of 26 h) to compare the difference in detection efficiency between [^18F]FDG and ^111In-DOTA-GlyGlu-CycMSH. The mouse was injected with 35.15 MBq of commercial [^18F]FDG (Biotech, N. Mex.) via the tail vein. At 1 h post-injection, the mouse was anesthetized with 1.5% isoflurane and placed in the prone position near the center of the field of view of small animal PET (LabPET™) (Gamma Medica-Ideas, Sherbrooke, Quebec). A 30-min static scan was acquired, and the image was reconstructed by maximum likelihood estimation method (MLEM). The mouse was returned to the cage for recovery after the ^18F-FDG PET imaging study was completed. The same mouse was injected with 24.05 MBq of ^111In-DOTA-GlyGlu-CycMSH via the tail vein 24 h after the ^18F-FDG PET imaging study. The mouse was anesthetized with 1.5% isoflurane for small animal SPECT/CT (Nano-SPECT/CT®, Bioscan) imaging 2 h post-injection. The 6-min CT imaging was immediately followed by the focused SPECT imaging of lung. The SPECT scans of 24 projections were acquired and total acquisition time was 45 min. After the focused lung imaging, the mouse was sacrificed with CO2 inhalation for whole-body SPECT/CT imaging. The 9-min CT imaging was immediately followed by the SPECT imaging of whole-body. Reconstructed data from SPECT and CT were visualized and co-registered using InVivoScope (Bioscan, Washington D.C.). Necropsy analysis of the mouse was performed to confirm the pulmonary metastatic melanoma lesions after the SPECT/CT imaging studies were completed. To monitor the development of pulmonary melanoma metstases with ^111In-DOTA-GlyGlu-CycMSH, a pulmonary metastatic melanoma-bearing mouse was injected with 10.36 MBq of ^111In-DOTA-GlyGlu-CycMSH through the tail vein for small animal SPECT/CT imaging 20 days after the cell injection. […]", "note": "Residues, ends and D or L forms follow the SMILES beside them.", "data": [{"smiles": "CCCC[C@@H]1NC(=O)[C@@H](NC(=O)[C@H](CCC(=O)O)NC(=O)CNC(=O)CN2CCN(CC(=O)O)CCN(CC(=O)O)CCN(CC(=O)O)CC2)CCCCNC(=O)[C@H](CC(=O)O)NC(=O)[C@H](C(C)C)NC(=O)[C@@H]2CCCN2C(=O)[C@H](CCCNC(=N)N)NC(=O)CNC(=O)[C@H](Cc2c[nH]c3ccccc23)NC(=O)[C@H](CCCNC(=N)N)NC(=O)[C@@H](Cc2ccccc2)NC(=O)[C@H](Cc2c[nH]cn2)NC(=O)[C@H](CCC(=O)O)NC1=O", "note": "[^111In-DOTA-GlyGlu-CycMSH, metal not drawn] (HELM PEPTIDE1{[O=C(O)CN1CCN(CC(=O)O)CCN(CC(=O)[*:2])CCN(CC(=O)O)CC1].G.E.K.[Nle].E.H.[dF].R.W.G.R.P.V.D}$PEPTIDE1,PEPTIDE1,4:R3-15:R2$$$V2.0)", "values": [{"measurement": "accumulation of activity in normal organs in whole-body image", "result": "extremely low except for the kidneys"}]}]}
